The compounds below were run against human APJ receptor (Homo sapiens (Human), UniProt P35414) (assay: Intracellular cAMP accumulation assay (APJ hcAMP, HTRF)). Conditions: HEK293 cells stably expressing human APJ receptor; inhibition of forskolin-mediated cAMP production; read-out: Human APJ cAMP EC50 Potency range.
Assay type: cell-based
In short: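 HEK293 cells stably expressing human APJ, 5,000 per well, incubated 30 min at rt with compound, […] and 2 μM forskolin. cAMP measured by HTRF against a cAMP standard curve as inhibition of forskolin-driven production. EC50 from variable-slope sigmoidal fit.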

Sequence of human APJ receptor (P35414 whole entry): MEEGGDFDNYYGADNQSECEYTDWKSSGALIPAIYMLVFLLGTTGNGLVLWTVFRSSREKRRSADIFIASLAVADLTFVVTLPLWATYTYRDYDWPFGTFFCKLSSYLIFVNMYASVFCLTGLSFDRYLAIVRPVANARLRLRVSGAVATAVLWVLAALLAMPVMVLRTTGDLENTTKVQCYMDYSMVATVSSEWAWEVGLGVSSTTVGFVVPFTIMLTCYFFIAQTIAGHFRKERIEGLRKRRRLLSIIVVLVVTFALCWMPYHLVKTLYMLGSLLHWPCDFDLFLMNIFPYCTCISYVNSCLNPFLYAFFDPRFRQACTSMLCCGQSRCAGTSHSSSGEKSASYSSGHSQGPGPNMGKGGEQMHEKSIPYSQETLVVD

Compound | EC50 [nM]
CCCCc1nc(=O)c(S(=O)(=O)c2ccc(-c3ccc(F)nc3C)cn2)c(O)n1[C@@H](CC)c1cccc(C#N)c1 [Example 454, 3-[(1S)-1-[2-butyl-5-({6′-fluoro-2′-methyl-[3,3′-bipyridine]-6-yl}sulfonyl)-6-hydroxy-4-oxo-1,4-dihydropyrimidin-1-yl]propyl]benzonitrile] | 0.01 to 10
CCCCc1nc(=O)c(S(=O)(=O)c2ccc(C(=O)NN)cc2)c(O)n1-c1c(OC)cccc1OC [Example 116, 4-((2-Butyl-1-(2,6-dimethoxyphenyl)-6-hydroxy-4-oxo-1,4-dihydropyrimidin-5-yl)sulfonyl)benzohydrazide] | 0.01 to 10
CCCCc1nc(=O)c(S(=O)(=O)c2ccc(-c3ccncc3C)cc2)c(O)n1[C@@H](CC)C1CCOCC1 [Example 527, 2-butyl-6-hydroxy-5-[4-(3-methylpyridin-4-yl)benzenesulfonyl]-1-[(1S)-1-(oxan-4-yl)propyl]-1,4-dihydropyrimidin-4-one] | 0.01 to 10
CCCCc1nc(=O)c(S(=O)(=O)c2ccc(-c3ccc(F)nc3C)cc2)c(O)n1[C@@H](CC)c1ccc(F)c(C#N)c1 [Example 440, 5-[(1S)-1-{2-butyl-5-[4-(6-fluoro-2-methylpyridin-3-yl)benzenesulfonyl]-6-hydroxy-4-oxo-1,4-dihydropyrimidin-1-yl}propyl]-2-fluorobenzonitrile] | 0.01 to 10
CCCCc1nc(=O)c(S(=O)(=O)c2ccc(-c3ccccc3C(=O)NC)cc2)c(O)n1[C@@H](CC)c1cccc(C#N)c1 [Example 507, 4′-({2-butyl-1-[(1S)-1-(3-cyanophenyl)propy1]-6-hydroxy-4-oxo-1,4-dihydropyrimidin-5-yl}sulfonyl)-N-methyl-[1,1′-biphenyl]-2-carboxamide] | 0.01 to 10
CCCCc1nc(=O)c(S(=O)(=O)c2ccc(-c3cc(C#N)ccc3C)cc2)c(O)n1[C@@H](CC)c1cccc(C#N)c1 [Example 493, 4′-({2-butyl-1-[(1S)-1-(3-cyanophenyl)propyl]-6-hydroxy-4-oxo-1,4-dihydropyrimidin-5-yl}sulfonyl)-6-methyl-[1,1′-biphenyl]-3-carbonitrile] | 0.01 to 10
CCCCc1nc(=O)c(S(=O)(=O)c2ccc(-c3ccccc3F)cc2)c(O)n1[C@@H](CC)c1cccc(C#N)c1 [Example 511, 3-[(1S)-1-[2-butyl-5-({2′-fluoro-[1,1′-biphenyl]-4-yl}sulfonyl)-6-hydroxy-4-oxo-1,4-dihydropyrimidin-1-yl]propyl]benzonitrile] | 0.01 to 10
CCCCc1nc(=O)c(S(=O)(=O)c2ccc(-c3cccn(C)c3=O)cc2)c(O)n1[C@H](c1cccc(C#N)c1)C1CC1 [Example 480, 3-[(S)-{2-butyl-6-hydroxy-5-[4-(1-methyl-2-oxo-1,2-dihydropyridin-3-yl)benzenesulfonyl]-4-oxo-1,4-dihydropyrimidin-1-yl}(cyclopropyl)methyl] benzonitrile] | 0.01 to 10

Same assay, conditions: human APJ, cAMP accumulation; read-out: Human APJ cAMP EC50 Potency range

Compound | EC50 [nM]
CCOCc1nc(=O)c(S(=O)(=O)c2ccc(-c3ccc(F)nc3C)c(F)c2)c(O)n1[C@@H](COC)c1cccc(C#N)c1 [Example 344, 3-[(1R)-1-[2-(ethoxymethyl)-5-[3-fluoro-4-(6-fluoro-2-methylpyridin-3-yl)benzenesulfonyl]-6-hydroxy-4-oxo-1,4-dihydropyrimidin-1-yl]-2-methoxyethyl] benzonitrile] | 0.01 to 10
COC[C@@H](c1ccccc1)n1c(COC(C)C)nc(=O)c(S(=O)(=O)c2ccc(-c3ccc(F)nc3C)c(F)c2)c1O [Example 304, 5-[3-fluoro-4-(6-fluoro-2-methylpyridin-3-yl)benzenesulfonyl]-6-hydroxy-1-[(1R)-2-methoxy-1-phenylethyl]-2-[(propan-2-yloxy)methyl]-1,4-dihydropyrimidin-4-one] | 0.01 to 10
CCOCc1nc(=O)c(S(=O)(=O)c2ccc(-c3ccncc3C)c(F)c2)c(O)n1[C@@H](COC)c1cccc(C#N)c1 [Example 345, 3-[(1R)-1-[2-(ethoxymethyl)-5-[3-fluoro-4-(3-methylpyridin-4-yl)benzenesulfonyl]-6-hydroxy-4-oxo-1,4-dihydropyrimidin-1-yl]-2-methoxyethyl] benzonitrile] | 0.01 to 10
CC[C@@H](c1ccccc1)n1c(COC(C)C)nc(=O)c(S(=O)(=O)c2ccc(Br)cc2)c1O [Example 286, 5-(4-bromobenzenesulfonyl)-6-hydroxy-1-[(1S)-1-phenylpropyl]-2-[(propan-2-yloxy)methyl]-1,4-dihydropyrimidin-4-one] | 100 to 300
COC[C@@H](c1ccccc1)n1c(C2CCCO2)nc(=O)c(S(=O)(=O)c2ccc(-c3ccc(F)nc3C)cc2)c1O (single isomer, unassigned) [Example 357] | 0.01 to 10

Same assay, conditions: human APJ, intracellular cAMP accumulation; read-out: Human APJ cAMP EC50 Potency range

Compound | EC50 [nM]
CCCCc1nc(=O)c(S(=O)(=O)c2ccc(C(=O)N3CC(F)(F)C3)cc2)c(O)n1-c1c(OC)cccc1OC [Example 93, 2-butyl-5-[4-(3,3-difluoroazetidine-1-carbonyl)benzenesulfo-nyl]-1-(2,6-dimethoxyphenyl)-6-hydroxy-1,4-dihydropyrimidin-4-one] | 0.01 to 10
CCCCc1nc(=O)c(S(=O)(=O)c2ccc(-c3cc(Cl)cc(Cl)c3)cc2)c(O)n1-c1c(OC)cccc1OC [Example 56, 2-butyl-5-[4-(3,5-dichlorophenyl)benzenesulfonyl]-1-(2,6-dimethoxyphenyl)-6-hydroxy-1,4-dihydropyrimidin-4-one] | 0.01 to 10
CCCCc1nc(=O)c(S(=O)(=O)c2ccc(C(F)(F)F)cn2)c(O)n1-c1c(OC)cccc1OC [Example 6, 2-butyl-1-(2,6-dimethoxyphenyl)-6-hydroxy-5-{[5-(trifluoromethyl)pyridin-2-yl]sulfonyl}-1,4-dihydropyrimidin-4-one] | 0.01 to 10
CCCCc1nc(=O)c(S(=O)(=O)c2ccc(-c3ccncc3C)cc2)c(O)n1[C@H](C)c1cccc(C#N)c1 [Example 158, 3-[(1R)-1-{2-butyl-6-hydroxy-5-[4-(3-methylpyridin-4-yl)benzenesulfonyl]-4-oxo-1,4-dihydropyrimidin-1-yl}ethyl]benzonitrile] | 0.01 to 10
CCCCc1nc(=O)c(S(=O)(=O)c2ccc(-c3ccncc3C)cc2)c(O)n1[C@H](C)c1ccccc1 [Example 139, 2-butyl-6-hydroxy-5-[4-(3-methylpyridin-4-yl)benzenesulfonyl]-1-[(1R)-1-phenylethyl]-1,4-dihydropyrimidin-4-one] | 0.01 to 10
CCCc1nc(=O)c(S(=O)(=O)c2ccc(-c3ccc(F)nc3C)cc2)c(O)n1[C@@H](COC)c1ccccc1 [Example 177, 5-[4-(6-fluoro-2-methylpyridin-3-yl)benzenesulfonyl]-6-hydroxy-1-[(1R)-2-methoxy-1-phenylethyl]-2-propyl-1,4-dihydropyrimidin-4-one] | 0.01 to 10
CCCCc1nc(=O)c(S(=O)(=O)c2ccc(-c3ccc(N4CCOCC4)nc3)cc2)c(O)n1-c1c(OC)cccc1OC [Example 28, 2-butyl-1-(2,6-dimethoxyphenyl)-6-hydroxy-5-{4-[6-(morpholin-4-yl)pyridin-3-yl]benzenesulfonyl}-1,4-dihydropyrimidin-4-one] | 0.01 to 10
CCCCc1nc(=O)c(S(=O)(=O)c2ccc(-c3ccncc3C)cc2)c(O)n1C(c1ccccc1)C1CC1 (stereo not shown) [Example 201] | 0.01 to 10
CCCCc1nc(=O)c(S(=O)(=O)c2ccc(-c3ccnc(F)c3C)cc2)c(O)n1C(C)c1cccnc1 (stereo not shown) [Example 203, 2-butyl-5-[4-(2-fluoro-3-methylpyridin-4-yl)benzenesulfonyl]-6-hydroxy-1-[1-(pyridin-3-yl)ethyl]-1,4-dihydropyrimidin-4-one] | 0.01 to 10
